# Measurements as given in patent US9447100B2, “Substituted pyrazolo[1,5-A] pyrimidines as calcium receptor modulating agents” (Takeda Pharmaceutical Company Limited, priority 2002, dated 2016).
# Counter-ions that a name gives are not always drawn.
row,Compound,melting point [°C]
1,"CCC(CC)(NC(=O)c1cnn2c1NC(c1ccccc1)CC2(C)C)c1cccc(C(F)(F)F)c1 (stereo not drawn) [Example 434, N-(1-ethyl-1-(3-(trifluoromethyl)phenyl)propyl)-7,7-dimethyl-5-phenyl-4,5,6,7-tetrahydropyrazolo[1,5-a]pyrimidine-3-carboxamide]",166 to 167
2,"CCC(CC)(NC(=O)c1c(C)nn2c1NC(c1ccccc1OC)CC2(C)C)c1ccc(C)cc1 (stereo not drawn) (as salt: HCl) [Example 965, N-(1-ethyl-1-(4-methylphenyl)propyl)-5-(2-methoxyphenyl)-2,7,7-trimethyl-4,5,6,7-tetrahydropyrazolo[1,5-a]pyrimidine-3-carboxamide]",162 to 163
3,"CCC(CC)(NC(=O)c1c(C)nn2c1N[C@@H](c1ccccc1)CC2(C)C)c1ccc(O)cc1 [Example 1064, (5R)-N-(1-ethyl-1-(4-hydroxyphenyl)propyl)-2,7,7-trimethyl-5-phenyl-4,5,6,7-tetrahydropyrazolo[1,5-a]pyrimidine-3-carboxamide]",160 to 161
4,"CCC(CC)(NC(=O)c1c(C)nn2c1NC(c1ccccc1)CC2(C)C)c1ccc(Br)cc1 (stereo not drawn) (as salt: HCl) [Example 738, N-(1-(4-bromophenyl)-1-ethylpropyl)-2,7,7-trimethyl-5-phenyl-4,5,6,7-tetrahydropyrazolo[1,5-a]pyrimidine-3-carboxamide]",185 to 187
5,"CC(C)(CC1Cc2ccccc2C1)NC(=O)c1cnn2c1NC(c1ccccc1)CC2C(F)(F)F (stereo not drawn) [Example 292, N-(2-(2,3-dihydro-1H-inden-2-yl)-1,1-dimethylethyl)-5-phenyl-7-(trifluoromethyl)-4,5,6,7-tetrahydropyrazolo[1,5-a]pyrimidine-3-carboxamide]",221 to 222
6,"CCC(C#N)NC(=O)c1cnn2c1N[C@H](c1ccccc1)C[C@@H]2C(F)(F)F (stereo in doubt) [Example 283, N-(1-cyanopropyl)-5-phenyl-7-(trifluoromethyl)-4,5,6,7-tetrahydropyrazolo[1,5-a]pyrimidine-3-carboxamide]",180 to 181

# Now from value to molecule:
row,melting point [°C],Compound
1,172 to 173,"CCC(=O)Oc1ccc(C(CC)(CC)NC(=O)c2cnn3c2NC(c2ccccc2)CC3(C)C)cc1 (stereo not drawn) [Example 729, 4-(1-(((7,7-dimethyl-5-phenyl-4,5,6,7-tetrahydropyrazolo[1,5-a]pyrimidin-3-yl)carbonyl)amino)-1-ethylpropyl)phenyl propionate]"
2,213 to 214,"CCC(CC)(NC(=O)c1cnn2c1NC(c1ccccc1)CC2(C)C)c1ccc(OCC(=O)O)cc1 (stereo not drawn) [Example 731, (4-(1-(((7,7-dimethyl-5-phenyl-4,5,6,7-tetrahydropyrazolo[1,5-a]pyrimidin-3-yl)carbonyl)amino)-1-ethylpropyl)phenoxy)acetic acid]"
3,150 to 151,"Cc1ccc(C(C)(C)NC(=O)c2cnn3c2NC(c2ccccc2)CC3(C)C)cc1 (stereo not drawn) (as salt: HCl) [Example 793, 7,7-dimethyl-N-(1-methyl-1-(4-methylphenyl)ethyl)-5-phenyl-4,5,6,7-tetrahydropyrazolo[1,5-a]pyrimidine-3-carboxamide]"
4,84 to 85,"CCC(CC)(CCC(F)(F)F)NC(=O)c1cnn2c1NC(c1ccccc1)CC2(C)C (stereo not drawn) [Example 698, N-(1,1-diethyl-4,4,4-trifluorobutyl)-7,7-dimethyl-5-phenyl-4,5,6,7-tetrahydropyrazolo[1,5-a]pyrimidine-3-carboxamide]"
5,184 to 185,"COC(=O)C1(NC(=O)c2cnn3c2NC(c2ccccc2)CC3(C)C)CCCCC1 (stereo not drawn) [Example 624, methyl 1-(((7,7-dimethyl-5-phenyl-4,5,6,7-tetrahydropyrazolo[1,5-a]pyrimidin-3-yl)carbonyl)amino)cyclo-hexanecarboxylate]"
6,185 to 186,"CCCC(CC)(CC)NC(=O)c1cnn2c1N[C@@H](c1ccccc1)CC2(C)C (as salt: HCl) [Example 1072, (5R)-N-(1,1-diethylbutyl)-7,7-dimethyl-5-phenyl-4,5,6,7-tetrahydropyrazolo[1,5-a]pyrimidine-3-carboxamide]"
